Patent publication US7186701B2, “Dehydrating agent and method for dehydrating moist article using the agent and dehydrated article obtained by the method” (Kabushiki Kaisha Hayashibara Seibutsu Kagaku Kenkyujo, priority 2001, dated 2007)

What was measured:
[1] = Saturation concentration of cyclotetrasaccharide in water; format: physicochemical
From the text: The resulting each saturated solution of cyclotetrasaccharide was membrane filtered to remove undissolved cyclotetrasaccharide, and each filtrate was then examined for moisture content by the drying loss method to determine a saturation concentration of cyclotetrasaccharide at respective temperatures.

[2] = Thermostability; format: physicochemical; details: 10% (w/v) aqueous solution, 120° C.; for Purity (%) after heating: HPLC
Description: After the heating, the aqueous solutions were cooled under atmospheric conditions and measured for coloration degree and determined for purity on HPLC. The coloration degree of each solution was evaluated based on the absorbance in a cell with a 1-cm light pass at a wavelength of 480 nm.

[3] = pH stability; format: physicochemical; details: 4% (w/v), 100° C., 24 hours; for Purity (%) after heating: HPLC
Description: Eight milliliters of each solution was placed in a glass test tube, followed by sealing and then heating the test tube at 100° C. for 24 hours. After the heating, each solution was cooled and measured for coloration degree and determined for purity on HPLC. The coloration degree was evaluated based on the absorbance in a cell with a 1-cm light pass at a wavelength of 480 nm.

[4] = Amino carbonyl reaction with glycine; format: physicochemical; details: 10% (w/v) with 1% (w/v) glycine, pH 7.0, 120° C.
Description: (§1) Four milliliter aliquots of the resulting solution were placed in glass test tubes, sealed, and heated at 120° C. for 30 to 90 min. After allowing to stand for cooling at ambient temperature, each of the resulting solutions was measured for coloration degree to examine their amino carbonyl reactivity. The coloration degree was evaluated based on the absorbance in a cell with 1-cm light pass at a wavelength of 480 nm.

[5] = Amino carbonyl reaction with polypeptone; format: physicochemical; details: 10% (w/v) with 5% (w/v) polypeptone, 100° C., minus control
Description: as §1, with “100°” for “120°”, “solution” for “solutions”, “reactivity. In parallel, as a control, a solution with only polypeptone was provided and treated similarly as above.” for “reactivity.”, “level of the absorbance, which had been measured” for “absorbance”, “nm, minused that of the control.” for “nm.”

[6] = test system: Bacteroides vulgatus JCM 5826; test: Assimilation test; format: cell-based; details: 0.5% saccharide in PYF medium, 37° C., four days, anaerobic
[7] = test system: mice; test: Acute toxicity test, oral; format: in vivo; details: oral administration to mice
From the text: Based on this, the LD50 of cyclotetrasaccharide was at least 50 g/kg mouse body weight, though the value was […].

[8] = target: T1, salivary amylase (Homo sapiens, UniProt P0DUB6)
T1 sequence (P0DUB6 16-511): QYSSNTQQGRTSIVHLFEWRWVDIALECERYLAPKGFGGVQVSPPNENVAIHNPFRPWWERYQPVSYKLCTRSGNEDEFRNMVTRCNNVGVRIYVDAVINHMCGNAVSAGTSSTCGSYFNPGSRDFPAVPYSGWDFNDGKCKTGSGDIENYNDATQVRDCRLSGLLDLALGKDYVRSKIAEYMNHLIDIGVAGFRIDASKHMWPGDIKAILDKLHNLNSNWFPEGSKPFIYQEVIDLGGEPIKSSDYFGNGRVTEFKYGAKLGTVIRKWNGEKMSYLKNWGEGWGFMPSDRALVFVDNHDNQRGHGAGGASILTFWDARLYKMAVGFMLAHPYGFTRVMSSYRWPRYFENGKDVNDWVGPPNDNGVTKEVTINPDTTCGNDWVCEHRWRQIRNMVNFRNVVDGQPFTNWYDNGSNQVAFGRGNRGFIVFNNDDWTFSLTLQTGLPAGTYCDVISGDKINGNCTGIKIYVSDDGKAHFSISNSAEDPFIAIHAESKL

[9] = target: T2, amylopsin (Homo sapiens, UniProt P04746)
T2 sequence (P04746 16-511): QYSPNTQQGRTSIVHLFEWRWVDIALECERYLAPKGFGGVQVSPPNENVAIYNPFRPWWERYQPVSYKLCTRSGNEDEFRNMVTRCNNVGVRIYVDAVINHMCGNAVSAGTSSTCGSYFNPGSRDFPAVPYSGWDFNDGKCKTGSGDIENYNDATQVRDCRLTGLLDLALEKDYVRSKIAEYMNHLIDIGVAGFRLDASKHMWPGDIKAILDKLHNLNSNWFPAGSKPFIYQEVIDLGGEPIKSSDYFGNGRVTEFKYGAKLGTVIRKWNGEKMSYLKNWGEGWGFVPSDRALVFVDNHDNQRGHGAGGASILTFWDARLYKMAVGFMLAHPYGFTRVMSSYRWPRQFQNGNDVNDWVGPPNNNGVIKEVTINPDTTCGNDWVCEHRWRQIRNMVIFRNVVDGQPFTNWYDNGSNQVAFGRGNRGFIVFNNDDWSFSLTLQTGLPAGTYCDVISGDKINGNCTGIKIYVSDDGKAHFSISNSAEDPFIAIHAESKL

[10] = test system: Small intestinal mucosal enzyme

Compound: OCC1OC2OCC3O[C@H](O[C@H]4C(O)C(CO)OC(OCC5O[C@H](O[C@@H](C1O)C2O)C(O)C(O)[C@@H]5O)C4O)C(O)C(O)[C@@H]3O (stereo partly drawn) [cyclotetrasaccharide, cyclo{→6)-α-D-glucopyranosyl-(1→3)-α-D-glucopyranosyl-(1→6)-α-D-glucopyranosyl-(1→3)-α-D-glucopyranosyl-(1→}]
- Saturation concentration (%) ([1]; 10 ° C.): 30.3%
- Saturation concentration (%) ([1]; 30 ° C.): 34.2%
- Saturation concentration (%) ([1]; 50 ° C.): 42.6%
- Saturation concentration (%) ([1]; 70 ° C.): 53.0%
- Saturation concentration (%) ([1]; 90 ° C.): 70.5%
- Coloration degree (A480 nm) ([2]; heating time 0 min): 0.00 A480 nm
- Purity (%) after heating ([2]; heating time 0 min): 100%
- Coloration degree (A480 nm) ([2]; heating time 30 min): 0.00 A480 nm
- Purity (%) after heating ([2]; heating time 30 min): 100%
- Coloration degree (A480 nm) ([2]; heating time 60 min): 0.00 A480 nm
- Purity (%) after heating ([2]; heating time 60 min): 100%
- Coloration degree (A480 nm) ([2]; heating time 90 min): 0.00 A480 nm
- Purity (%) after heating ([2]; heating time 90 min): 100%
- Coloration degree (A480 nm) ([3]; pH 2.0 (Acetate buffer)): 0.00 A480 nm
- Purity (%) after heating ([3]; pH 2.0 (Acetate buffer)): 93%
- Coloration degree (A480 nm) ([3]; pH 3.0 (Acetate buffer)): 0.00 A480 nm
- Purity (%) after heating ([3]; pH 3.0 (Acetate buffer)): 100%
- Coloration degree (A480 nm) ([3]; pH 4.0 (Acetate buffer)): 0.00 A480 nm
- Purity (%) after heating ([3]; pH 4.0 (Acetate buffer)): 100%
- Coloration degree (A480 nm) ([3]; pH 5.0 (Acetate buffer)): 0.00 A480 nm
- Purity (%) after heating ([3]; pH 5.0 (Acetate buffer)): 100%
- Coloration degree (A480 nm) ([3]; pH 6.0 (Tris-HCl buffer)): 0.00 A480 nm
- Purity (%) after heating ([3]; pH 6.0 (Tris-HCl buffer)): 100%
- Coloration degree (A480 nm) ([3]; pH 7.0 (Tris-HCl buffer)): 0.00 A480 nm
- Purity (%) after heating ([3]; pH 7.0 (Tris-HCl buffer)): 100%
- Coloration degree (A480 nm) ([3]; pH 8.0 (Tris-HCl buffer)): 0.00 A480 nm
- Purity (%) after heating ([3]; pH 8.0 (Tris-HCl buffer)): 100%
- Coloration degree (A480 nm) ([3]; pH 9.0 (Ammonium buffer)): 0.00 A480 nm
- Purity (%) after heating ([3]; pH 9.0 (Ammonium buffer)): 100%
- Coloration degree (A480 nm) ([3]; pH 10.0 (Ammonium buffer)): 0.00 A480 nm
- Purity (%) after heating ([3]; pH 10.0 (Ammonium buffer)): 100%
- Coloration degree (A480 nm) ([4]; heating time 0 min): 0.00 A480 nm
- Coloration degree (A480 nm) ([4]; heating time 30 min): 0.00 A480 nm
- Coloration degree (A480 nm) ([4]; heating time 60 min): 0.00 A480 nm
- Coloration degree (A480 nm) ([4]; heating time 90 min): 0.00 A480 nm
- Coloration degree (A480 nm) ([5]; heating time 0 min): 0.00 A480 nm
- Coloration degree (A480 nm) ([5]; heating time 30 min): 0.00 A480 nm
- Coloration degree (A480 nm) ([5]; heating time 60 min): 0.00 A480 nm
- Coloration degree (A480 nm) ([5]; heating time 90 min): 0.00 A480 nm
- Assimilability [6]: − (judged as negative (−) when the post culture had a pH of 6.0 or higher)
- LD50 [7]: at least 50 g/kg mouse body weight
- Decomposition percentage (%) by digestive enzyme [8]: 0.0%
- Decomposition percentage (%) by digestive enzyme [9]: 0.0%
- Decomposition percentage (%) by digestive enzyme [10]: 0.74%
- digestibility level relative to that of maltitol [10]: ⅕
